Test results: patent US7109380B2, “Cyclopentenedione antifungal compounds and methods for their use” (The University of Mississippi, priority 2004, dated 2006)
In brackets after ≈: the same amount, converted by molar mass.

Experiments:
C. albicans ATCC 90028 = test: In vitro antimicrobial assay (modified NCCLS), Candida media pH 4.5; format: cell-based, Candida albicans; settings: Candida albicans, ATCC90028, C. albicans ATCC 90028, pH 4.5, Table 3
C. glabrata ATCC 90030 = test: as above; format: cell-based, Candida glabrata; settings: Nakaseomyces glabratus, ATCC90030, C. glabrata ATCC 90030, pH 4.5
[1] = tested on: Cryptococcus neoformans ATCC 90113; test: In vitro antifungal susceptibility testing (modified NCCLS method); format: cell-based; settings: Cryptococcus neoformans, ATCC90113; Cr. neoformans ATCC 90113, Table 3; read-out: IC50 (50% inhibitory concentration)
C. krusei ATCC 6258 = test: In vitro antimicrobial assay (modified NCCLS), Candida media pH 4.5; format: cell-based, Candida krusei; settings: Pichia kudriavzevii, ATCC6258; C. krusei ATCC 6258, pH 4.5; read-out: IC50 (50% inhibitory concentration)
[2] = tested on: Colletotrichum gloeosporioides; test: 96-well microtiter fungal growth assay; format: cell-based;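 note: percent relative to untreated positive growth controls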
Excerpt: (§1) Pathogen collection. Isolates of Colletotrichum acutatum Simmonds, Colletotrichum fragariae Brooks, and Colletotrichum gloeosporioides (Penz.) Penz. & Sacc. in Penz. were obtained from B. J. Smith, USDA, ARS, Small Fruit Research Station, Poplarville, Mass. Colletotrichum fragariae (isolate CF63), C. acutatum (isolate CAGoff), and C. gloeosporioides (isolate CG162) were used for all pathogen and bioautography studies. Isolate CF63 is one of the most virulent isolates at infecting strawberry plants and inducing both crown and fruit rot (Smith and Black, 1990). CF63, CAGoff, and CG162 were used as standard test isolates because of our extensive knowledge of these isolates and their known fungicide sensitivity profiles in both bioautography and microtiter formats. The three Colletotrichum species were isolated from strawberry (Fragaria xananassa Duchesne). Botrytis cinerea Pers.:Fr, was isolated from commercial grape (Vitis vinifera L.) and Fusarium oxysporum Schlechtend:Fr from orchid (Cynoches sp.) by David E. Wedge, USDA ARS Natural Products Utilization Research Unit. Phomopsis viticola (Sacc.) and P. obscurans (Ellis & Everh.) Sutton were from Mike A. Ellis, Ohio State University, Wooster, Ohio. Fungi were grown on potato-dextrose agar (PDA, Difco, Detroit Mich.) in 9 cm petri dishes and incubated in a growth chamber at 24±2° C. and under cool-white fluorescent lights ([…]·m^−2·sec^−1 light) with 12-h photoperiod.
(§2) Inoculum preparation. Conidia were harvested from 7–10 day-old cultures by flooding plates with 5 mL of sterile distilled water and dislodging conidia by softly brushing the colonies with an L-shaped glass rod. Conidial suspensions were filtered through sterile miracloth (Calbiochem-Novabiochem Corp., La Jolla Calif.) to remove mycelia. Conidia concentrations were determined photometrically, from a standard curve based on the absorbance at 625 nm and suspensions were then adjusted with sterile distilled water to a concentration of 1.0×10^6 conidia/mL.
(§3) Microtiter assay. A standardized 96-well microtiter plate assay developed for discovery of natural product fungicidal agents. A 96-well microtiter assay was used to determine sensitivity of B. cinerea, C. acutatum, C. fragariae, C. gloeosporioides, F. oxysporum, Phomopsis viticola, and P. obscurans to the various antifungal agents in comparison with known fungicidal standards. Vinclozolin, captan, and thiabendazole, which represent three different modes of action, were used as standards in this experiment. Each fungus was challenged in a dose-response format using test compounds where the final treatment concentrations were 0.3, 3.0 and 30.0 μM. Microtiter plates (Nunc MicroWell, untreated; Roskilde, Denmark) were covered with a plastic lid and incubated in a growth chamber at 24±1 C and 12 h photoperiod under 60±5 μmol light. Growth was then evaluated by measuring absorbance of each well at 620 nm using a microplate photometer (Packard Spectra Count, Packard Instrument Co., Downers Grove, Ill.).
(§4) Microbioassay Experimental Design. Chemical sensitivity of each fungus 96-well microtiter assay is used to determine sensitivity of B. cinerea, C. acutatum, C. fragariae, C. gloeosporioides, F. oxysporum, Phomopsis viticola, and P. obscurans. Each chemical is evaluated in duplicate at each dose (0.3, 3.0 and 30.0 μM) and repeated twice in time. Sixteen wells containing broth and inoculum serves as positive controls, eight wells containing solvent at the appropriate concentration and broth without inoculum are used as negative controls. Mean absorbance values and standard errors is used to evaluate fungal growth at 48 hrs and 72 hrs except for P. obscurans and P. viticola the data are recorded at 120 hrs. […] Treatments are arranged as a split-plot design replicated twice in time. Whole-plots were fungal isolates and sub-plots are chemicals. Each dose level and response time is analyzed separately. […]

Colletotrichum fragariae = test: 96-well microtiter fungal growth assay; format: cell-based;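 note: percent relative to untreated positive growth controls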
Excerpt: as §1, §2, §3, §4

Fusarium oxysporum = test: 96-well microtiter fungal growth assay; format: cell-based;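 note: percent relative to untreated positive growth controls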
Excerpt: as §1, §2, §3, §4

Botrytis cinerea = test: 96-well microtiter fungal growth assay; format: cell-based;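 note: percent relative to untreated positive growth controls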
Excerpt: as §1, §2, §3, §4

Colletotrichum acutatum = test: 96-well microtiter fungal growth assay; format: cell-based;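 note: percent relative to untreated positive growth controls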
Excerpt: as §1, §2, §3, §4

Phomopsis obscurans = test: 96-well microtiter fungal growth assay; format: cell-based
Excerpt: as §1, §2, §3
(§5) Microbioassay Experimental Design. Chemical sensitivity of each fungus 96-well microtiter assay is used to determine sensitivity of B. cinerea, C. acutatum, C. fragariae, C. gloeosporioides, F. oxysporum, Phomopsis viticola, and P. obscurans. Each chemical is evaluated in duplicate at each dose (0.3, 3.0 and 30.0 μM) and repeated twice in time. Sixteen wells containing broth and inoculum serves as positive controls, eight wells containing solvent at the appropriate concentration and broth without inoculum are used as negative controls. […] Treatments are arranged as a split-plot design replicated twice in time. Whole-plots were fungal isolates and sub-plots are chemicals. Each dose level and response time is analyzed separately. The SAS system's analysis of variance procedure (Statistical Analysis System, Cary, N.C.) is used to identify significant factors and Fisher's protected LSD is used to separate means.

Phomopsis viticola = test: 96-well microtiter fungal growth assay; format: cell-based;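 note: percent relative to untreated positive growth controls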
Excerpt: as §1, §2, §3, §5

[3] = read-out: IC50 (50% inhibitory concentration)

## COC(C)=C1C(=O)C=C(C)C1=O [Compound 6, 2-(1-methoxy-ethylidene)-4-methyl-cyclopent-4-ene-1,3-dione]
C. albicans ATCC 90028; [3]
  IC50: 2 µg/mL (≈ 12 µM)
C. albicans ATCC 90028; read-out: MFC
  MFC: 20 µg/mL (≈ 120 µM)
C. albicans ATCC 90028; read-out: MIC
  MIC: 5 µg/mL (≈ 30.1 µM)
C. glabrata ATCC 90030; [3]
  IC50: 3.5 µg/mL (≈ 21.1 µM)
C. glabrata ATCC 90030; read-out: MIC
  MIC: 5 µg/mL (≈ 30.1 µM)
[1]
  IC50: 5 µg/mL (≈ 30.1 µM)
C. krusei ATCC 6258
  IC50: 10 µg/mL (≈ 60.2 µM)

## Cc1cc(C2CC2)nc(Nc2ccccc2)n1 [Cyprodinil]
[2]; 0.3 μm, 48 hrs
  Mean percent fungal growth inhibition of Colletotrichum gloeosporoides: −89.9 ± 2.7%
[2]; 0.3 μm, 72 hrs
  Mean percent fungal growth inhibition of Colletotrichum gloeosporoides: −62.9 ± 9.3%
[2]; 3.0 μm, 48 hrs
  Mean percent fungal growth inhibition of Colletotrichum gloeosporoides: −85.4 ± 6.6%
[2]; 3.0 μm, 72 hrs
  Mean percent fungal growth inhibition of Colletotrichum gloeosporoides: −76.4 ± 6.3%
[2]; 30 μm, 48 hrs
  Mean percent fungal growth inhibition of Colletotrichum gloeosporoides: −95.1 ± 1.0%
[2]; 30 μm, 72 hrs
  Mean percent fungal growth inhibition of Colletotrichum gloeosporoides: −91.1 ± 1.6%
Colletotrichum fragariae; 0.3 μm, 48 hrs
  Mean percent fungal growth inhibition of Colletotrichum fragariae: −94.1 ± 1.4%
Colletotrichum fragariae; 0.3 μm, 72 hrs
  Mean percent fungal growth inhibition of Colletotrichum fragariae: −54.1 ± 19.3%
Colletotrichum fragariae; 3.0 μm, 48 hrs
  Mean percent fungal growth inhibition of Colletotrichum fragariae: −89.0 ± 1.6%
Colletotrichum fragariae; 3.0 μm, 72 hrs
  Mean percent fungal growth inhibition of Colletotrichum fragariae: −76.7 ± 4.7%
Colletotrichum fragariae; 30 μm, 48 hrs
  Mean percent fungal growth inhibition of Colletotrichum fragariae: −95.5 ± 0.5%
Colletotrichum fragariae; 30 μm, 72 hrs
  Mean percent fungal growth inhibition of Colletotrichum fragariae: −92.5 ± 3.2%
Fusarium oxysporum; 0.3 μm, 48 hrs
  Mean percent fungal growth inhibition of Fusarium oxysporum: 16.4 ± 3.9%
Fusarium oxysporum; 0.3 μm, 72 hrs
  Mean percent fungal growth inhibition of Fusarium oxysporum: 7.9 ± 2.9%
Fusarium oxysporum; 3.0 μm, 48 hrs
  Mean percent fungal growth inhibition of Fusarium oxysporum: 2.6 ± 2.6%
Fusarium oxysporum; 3.0 μm, 72 hrs
  Mean percent fungal growth inhibition of Fusarium oxysporum: 1.8 ± 2.7%
Fusarium oxysporum; 30 μm, 48 hrs
  Mean percent fungal growth inhibition of Fusarium oxysporum: −67.4 ± 4.3%
Fusarium oxysporum; 30 μm, 72 hrs
  Mean percent fungal growth inhibition of Fusarium oxysporum: −41.5 ± 5.1%
Botrytis cinerea; 0.3 μm, 48 hrs
  Mean percent fungal growth inhibition of Botrytis cinerea: −96.6 ± 2.3%
Botrytis cinerea; 0.3 μm, 72 hrs
  Mean percent fungal growth inhibition of Botrytis cinerea: 26.56 ± 14.1%
Botrytis cinerea; 3.0 μm, 48 hrs
  Mean percent fungal growth inhibition of Botrytis cinerea: −90.2 ± 3.3%
Botrytis cinerea; 3.0 μm, 72 hrs
  Mean percent fungal growth inhibition of Botrytis cinerea: −81.4 ± 9.2%
Botrytis cinerea; 30 μm, 48 hrs
  Mean percent fungal growth inhibition of Botrytis cinerea: −94.2 ± 2.1%
Botrytis cinerea; 30 μm, 72 hrs
  Mean percent fungal growth inhibition of Botrytis cinerea: −96.2 ± 1.5%
Colletotrichum acutatum; 0.3 μm, 48 hrs
  Mean percent fungal growth inhibition of Colletotrichum acutatum: −102.2 ± 0.9%
Colletotrichum acutatum; 0.3 μm, 72 hrs
  Mean percent fungal growth inhibition of Colletotrichum acutatum: −94.5 ± 4.4%
Colletotrichum acutatum; 3.0 μm, 48 hrs
  Mean percent fungal growth inhibition of Colletotrichum acutatum: −98.1 ± 0.7%
Colletotrichum acutatum; 3.0 μm, 72 hrs
  Mean percent fungal growth inhibition of Colletotrichum acutatum: −98.3 ± 0.6%
Colletotrichum acutatum; 30 μm, 48 hrs
  Mean percent fungal growth inhibition of Colletotrichum acutatum: −99.7 ± 0.7%
Colletotrichum acutatum; 30 μm, 72 hrs
  Mean percent fungal growth inhibition of Colletotrichum acutatum: −99.0 ± 0.3%
Phomopsis obscurans; 0.3 μm, 120 hrs
  Percent change in fungal growth vs control (negative = inhibition): −51.4 ± 5.9%
Phomopsis obscurans; 0.3 μm, 144 hrs
  Percent change in fungal growth vs control (negative = inhibition): −46.3 ± 6.0%
Phomopsis obscurans; 3.0 μm, 120 hrs
  Percent change in fungal growth vs control (negative = inhibition): −64.5 ± 10.7%
Phomopsis obscurans; 3.0 μm, 144 hrs
  Percent change in fungal growth vs control (negative = inhibition): −72.6 ± 3.9%
Phomopsis obscurans; 30 μm, 120 hrs
  Percent change in fungal growth vs control (negative = inhibition): −86.8 ± 1.3%
Phomopsis obscurans; 30 μm, 144 hrs
  Percent change in fungal growth vs control (negative = inhibition): −81.5 ± 2.5%
Phomopsis viticola; 0.3 μm, 120 hrs
  Mean percent fungal growth inhibition of Phomopsis viticola: −219 ± 122.1%
Phomopsis viticola; 3.0 μm, 120 hrs
  Mean percent fungal growth inhibition of Phomopsis viticola: −184.6 ± 87.0%
Phomopsis viticola; 3.0 μm, 144 hrs
  Mean percent fungal growth inhibition of Phomopsis viticola: 451.7 ± 331.5%
Phomopsis viticola; 30 μm, 120 hrs
  Mean percent fungal growth inhibition of Phomopsis viticola: −176.2 ± 48.2%
Phomopsis viticola; 30 μm, 144 hrs
  Mean percent fungal growth inhibition of Phomopsis viticola: 80.4 ± 111.6%
